In general, inhibition refers to the drop in the measured response relative to a control, in per cent.

Test [1] addresses T1, human recombinant serotonin (5-Hydroxytryptamine) 5-HT2A receptor (Homo sapiens, UniProt P28223).
T1 construct: expressed in transfected cells; host or cells: CHO-K1 cells
Briefly: Serotonin 5-HT2A radioligand binding ([3H]Ketanserin). The note with it: compound at 1 μM; read-out: Serotonin (1 μM) 5-HT2A, percent inhibition of specific binding. On the procedure: To evaluate in radioligand binding assays the activity of compounds of the invention, human recombinant serotonin (5-Hydroxytryptamine) 5-HT2A receptor expressed in Chinese hamster ovary (CHO-K1) cells (Bonhaus, D. W. et al. Br. J. Pharmacol. 115:622, 1995; Saucier, C. and Albert, P. R., J. Neurochem. 68:1998, 1997) in a 50 mM Tris-HCl buffer, pH 7.4, was used. Compounds of the invention were incubated with 0.5 nM [^3H]Ketanserin for 60 min. at 25° C. Non-specific binding was estimated in the presence of 1 μM Mianserin. Receptor proteins were filtered and washed, the filters were then counted to determine [^3H]Ketanserin specifically bound. Compounds were screened at 1 μM or lower, using 1% DMSO as vehicle. Biochemical assay results are presented as the percent inhibition of specific binding in Table 6.

In test [2] the target is T2, human recombinant serotonin (5-Hydroxytryptamine) 5-HT6 receptor (Homo sapiens, UniProt P50406).
T2 construct: expressed in transfected cells; host or cells: human HeLa cells
T2 sequence (P50406 whole entry): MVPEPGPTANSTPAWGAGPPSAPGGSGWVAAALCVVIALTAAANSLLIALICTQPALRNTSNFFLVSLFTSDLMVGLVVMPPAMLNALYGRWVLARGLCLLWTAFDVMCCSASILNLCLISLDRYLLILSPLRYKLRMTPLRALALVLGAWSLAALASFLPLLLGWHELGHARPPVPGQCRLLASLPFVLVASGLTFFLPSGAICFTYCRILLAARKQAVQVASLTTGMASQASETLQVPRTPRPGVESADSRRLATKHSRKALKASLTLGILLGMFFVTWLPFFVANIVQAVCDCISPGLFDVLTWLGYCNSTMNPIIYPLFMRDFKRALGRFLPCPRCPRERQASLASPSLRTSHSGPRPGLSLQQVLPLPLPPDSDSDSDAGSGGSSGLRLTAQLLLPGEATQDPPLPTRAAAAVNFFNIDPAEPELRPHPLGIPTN
Briefly: Serotonin 5-HT6 radioligand binding ([3H]LSD). The note with it: compound at 1 μM; read-out: Serotonin (1 μM) 5-HT6, percent inhibition of specific binding. As for the experimental part:
To evaluate in radioligand binding assays the activity of compounds of the invention, human recombinant serotonin (5-Hydroxytryptamine) 5-HT6 receptor expressed in human HeLa cells (Monsma, F. J. Jr. et al., Mol. Pharmacol. 43:320, 1993) in a modified Tris-HCl buffer (50 mM Tris-HCl, pH 7.4, 150 mM NaCl, 2 mM Ascorbic Acid, 0.001% BSA) was used. Compounds of the invention were incubated with 1.5 nM [3H]Lysergic acid diethylamide (LSD) for 120 min. at 37° C. Non-specific binding was estimated in the presence of 5 μM Serotonin (5-HT). Receptor proteins were filtered and washed, the filters were then counted to determine [3H]LSD specifically bound. Compounds were screened at 1 μM or lower, using 1% DMSO as vehicle. Biochemical assay results are presented as the percent inhibition of specific binding in Table 6.

The target in test [3] is T3, human recombinant dopamine D2L receptor (Homo sapiens, UniProt P14416).
T3 construct: expressed in transfected cells; host or cells: CHO cells
T3 sequence (P14416 whole entry): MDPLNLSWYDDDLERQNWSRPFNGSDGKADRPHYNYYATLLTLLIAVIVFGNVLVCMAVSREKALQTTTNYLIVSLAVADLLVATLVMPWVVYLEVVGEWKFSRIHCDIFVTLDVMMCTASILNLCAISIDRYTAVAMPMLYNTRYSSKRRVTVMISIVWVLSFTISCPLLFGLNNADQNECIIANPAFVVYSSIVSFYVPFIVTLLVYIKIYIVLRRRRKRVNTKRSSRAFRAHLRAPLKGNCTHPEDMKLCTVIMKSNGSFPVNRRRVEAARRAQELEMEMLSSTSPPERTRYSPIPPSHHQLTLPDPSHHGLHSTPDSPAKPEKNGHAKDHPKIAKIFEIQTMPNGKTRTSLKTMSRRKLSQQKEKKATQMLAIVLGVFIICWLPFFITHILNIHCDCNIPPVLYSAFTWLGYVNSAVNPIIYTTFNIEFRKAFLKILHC
Briefly: Dopamine D2L radioligand binding ([3H]Spiperone). The note with it: compound at 1 μM; read-out: Dopamine (1 μM) D2L, percent inhibition of specific binding. On the procedure: To evaluate in radioligand binding assays the activity of compounds of the invention, human recombinant dopamine D2L receptor expressed in Chinese hamster ovary (CHO) cells (Grandy, D. K. et al. Proc. Natl. Acad. Sci. USA. 86:9762, 1989; Hayes, G. et al., Mol. Endocrinol. 6:920, 1992) in a modified Tris-HCl buffer (50 mM Tris-HCl, pH 7.4, 1.4 mM Ascorbic Acid, 0.001% BSA, 150 mM NaCl) was used. Compounds of the invention were incubated with 0.16 nM [^3H]Spiperone for 120 min. at 25° C. Non-specific binding was estimated in the presence of 10 μM Haloperidol. Receptor proteins were filtered and washed, the filters were then counted to determine [^3H]Spiperone specifically bound. Compounds were screened at 1 μM or lower, using 1% DMSO as vehicle. Biochemical assay results are presented as the percent inhibition of specific binding in Table 5.

Test [4] addresses T4, human recombinant histamine H1 receptor (Homo sapiens, UniProt P35367).
T4 construct: expressed in transfected cells; host or cells: CHO cells
Briefly: Histamine H1 radioligand binding ([3H]Pyrilamine). The note with it: compound at 1 μM; read-out: Histamine Binding (1 μM) H1, percent inhibition of specific binding. As for the experimental part: To evaluate in radioligand binding assays the activity of compounds of the invention, human recombinant histamine H1 receptor expressed in Chinese hamster ovary (CHO) cells (De Backer, M. D. et al., Biochem. Biophys. Res. Comm. 197(3):1601, 1993) in a modified Tris-HCl buffer (50 mM Tris-HCl, pH 7.4, 2 mM MgCl2, 100 mM NaCl, 250 mM Sucrose) was used. Compounds of the invention were incubated with 1.2 nM [^3H]Pyrilamine for 180 min. at 25° C. Non-specific binding was estimated in the presence of 1 μM pyrilamine. Receptor proteins were filtered and washed, the filters were then counted to determine [^3H]Pyrilamine specifically bound. Compounds were screened at 1 μM or lower, using 1% DMSO as vehicle. Biochemical assay results are presented as the percent inhibition of specific binding in Table 6.

For test [5], the target named is T5, human recombinant histamine H2 receptor (Homo sapiens, UniProt P25021).
T5 construct: expressed in transfected cells; host or cells: CHO-K1 cells
T5 sequence (P25021 whole entry): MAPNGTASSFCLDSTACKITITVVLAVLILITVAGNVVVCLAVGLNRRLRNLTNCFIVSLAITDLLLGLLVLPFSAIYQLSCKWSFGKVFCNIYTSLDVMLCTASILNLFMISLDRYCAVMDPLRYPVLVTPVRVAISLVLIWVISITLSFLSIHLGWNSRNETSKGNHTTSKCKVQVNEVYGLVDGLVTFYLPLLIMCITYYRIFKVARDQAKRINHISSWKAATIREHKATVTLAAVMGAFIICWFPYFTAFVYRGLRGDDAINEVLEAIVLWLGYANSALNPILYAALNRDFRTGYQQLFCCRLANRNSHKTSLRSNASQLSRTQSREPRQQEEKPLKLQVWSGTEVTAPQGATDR
Put plainly: Histamine H2 radioligand binding ([125I]Aminopotentidine). The note with it: compound at 1 μM; read-out: Histamine Binding (1 μM) H2, percent inhibition of specific binding. On the procedure:
To evaluate in radioligand binding assays the activity of compounds of the invention, human recombinant histamine H2 receptor expressed in Chinese hamster ovary (CHO) K1 cells (Ruat, M., Proc. Natl. Acad. Sci. USA. 87(5):1658, 1990) in a 50 mM Phosphate buffer, pH 7.4 was used. Compounds of the invention were incubated with 0.1 nM [^125I]Aminopotentidine for 120 min. at 25° C. Non-specific binding was estimated in the presence of 3 μM Tiotidine. Receptor proteins were filtered and washed, the filters were then counted to determine [^125I]Aminopotentidine specifically bound. Compounds were screened at 1 μM or lower, using 1% DMSO as vehicle. Biochemical assay results are presented as the percent inhibition of specific binding in Table 6.

Test [6] deals with T6, human recombinant serotonin (5-Hydroxytryptamine) 5-HT2C receptor (Homo sapiens, UniProt P28335).
T6 construct: expressed in transfected cells; host or cells: CHO-K1 cells
T6 sequence (P28335 33-458): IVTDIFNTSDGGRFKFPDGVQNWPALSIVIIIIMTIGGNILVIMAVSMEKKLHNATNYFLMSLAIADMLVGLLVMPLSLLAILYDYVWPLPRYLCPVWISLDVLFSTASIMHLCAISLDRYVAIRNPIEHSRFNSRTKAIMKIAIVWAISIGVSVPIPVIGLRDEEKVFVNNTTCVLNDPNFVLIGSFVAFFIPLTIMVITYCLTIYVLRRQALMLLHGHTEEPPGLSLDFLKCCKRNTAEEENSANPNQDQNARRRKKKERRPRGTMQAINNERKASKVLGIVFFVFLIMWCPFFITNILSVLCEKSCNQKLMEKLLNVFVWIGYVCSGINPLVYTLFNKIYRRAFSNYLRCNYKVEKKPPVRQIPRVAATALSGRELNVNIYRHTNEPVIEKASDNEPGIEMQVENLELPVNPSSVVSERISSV
Briefly: Serotonin 5-HT2C radioligand binding ([3H]Mesulergine). The note with it: compound at 1 μM; read-out: Serotonin (1 μM) 5-HT2C, percent inhibition of specific binding. As for the experimental part: To evaluate in radioligand binding assays the activity of compounds of the invention, human recombinant serotonin (5-Hydroxytryptamine) 5-HT2C receptor expressed in Chinese hamster ovary (CHO-K1) cells (Wolf, W. A. and Schutz, J. S., J. Neurochem. 69:1449, 1997) in a modified Tris-HCl buffer (50 mM Tris-HCl, pH 7.4, 0.1% Ascorbic Acid, 10 μM Pargyline) was used. Compounds of the invention were incubated with 1 nM [^3H]Mesulergine for 60 min. at 25° C. Non-specific binding was estimated in the presence of 1 μM Mianserin. Receptor proteins were filtered and washed, the filters were then counted to determine [^3H]Mesulergine specifically bound. Compounds were screened at 1 μM or lower, using 1% DMSO as vehicle. Biochemical assay results are presented as the percent inhibition of specific binding in Table 6.

T4 sequence (P35367 whole entry): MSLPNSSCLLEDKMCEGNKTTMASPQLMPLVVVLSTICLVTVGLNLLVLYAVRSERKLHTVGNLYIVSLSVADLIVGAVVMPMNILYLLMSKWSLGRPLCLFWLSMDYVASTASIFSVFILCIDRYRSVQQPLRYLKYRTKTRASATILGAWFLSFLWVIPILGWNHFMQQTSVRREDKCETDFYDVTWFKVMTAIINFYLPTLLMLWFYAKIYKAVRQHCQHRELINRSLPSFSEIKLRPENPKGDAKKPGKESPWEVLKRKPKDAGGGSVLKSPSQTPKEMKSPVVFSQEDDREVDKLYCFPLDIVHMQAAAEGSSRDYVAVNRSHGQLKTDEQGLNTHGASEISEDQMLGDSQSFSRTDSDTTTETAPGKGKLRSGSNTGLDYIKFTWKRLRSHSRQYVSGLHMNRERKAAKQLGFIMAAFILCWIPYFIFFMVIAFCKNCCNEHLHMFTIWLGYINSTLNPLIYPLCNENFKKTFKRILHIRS
T1 sequence (P28223 whole entry): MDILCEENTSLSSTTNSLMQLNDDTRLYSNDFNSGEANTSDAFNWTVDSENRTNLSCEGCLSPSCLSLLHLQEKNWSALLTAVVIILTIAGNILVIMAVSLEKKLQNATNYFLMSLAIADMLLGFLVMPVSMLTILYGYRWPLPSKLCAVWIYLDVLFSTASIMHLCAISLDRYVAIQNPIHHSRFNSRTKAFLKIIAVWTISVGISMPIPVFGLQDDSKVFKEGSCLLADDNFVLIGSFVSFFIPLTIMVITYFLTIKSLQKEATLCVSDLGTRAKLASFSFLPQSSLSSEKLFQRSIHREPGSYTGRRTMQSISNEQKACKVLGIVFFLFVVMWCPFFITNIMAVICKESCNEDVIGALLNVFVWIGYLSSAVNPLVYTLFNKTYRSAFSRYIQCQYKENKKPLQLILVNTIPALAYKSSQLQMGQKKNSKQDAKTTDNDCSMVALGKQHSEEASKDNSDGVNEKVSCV

`C/C(=C\n1c2c(c3cc(Cl)ccc31)CCN(C)CC2)c1cccc(F)c1` [Compound No. 250, (E)-9-chloro-6-(2-(3-fluorophenyl)prop-1-enyl)-3-methyl-1,2,3,4,5,6-hexahydroazepino[4,5-b]indole]: the inhibition at 1 µM in test [1] amounted to 100%; in test [2] it was 99%; in test [3], 15%; in test [4], 93%; in test [5], 85%; in test [6] it was 99%.

Take `C/C(=C\n1c2c(c3cc(Cl)ccc31)CCN(C)CC2)c1cccnc1` [Compound No. 246, (E)-9-chloro-3-methyl-6-(2-(pyridin-3-yl)prop-1-enyl)-1,2,3,4,5,6-hexahydroazepino[4,5-b]indole]: the inhibition at 1 µM in test [1] amounted to 98%; in test [2], 94%; in test [3], 14%; in test [4] it was 96%; in test [5], 48%; in test [6], 99%.

Regarding `C/C(=C\n1c2c(c3cc(C)ccc31)CCN(C)CC2)c1cccnc1` [Compound No. 247, (E)-3,9-dimethyl-6-(2-(pyridin-3-yl)prop-1-enyl)-1,2,3,4,5,6-hexahydroazepino[4,5-b]indole], the inhibition at 1 µM came out at 98% in test [1]; 74% in test [2]; 8% in test [3]; 82% in test [4]; 36% in test [5]; 99% in test [6].

Consider `C/C(=C/n1c2c(c3cc(Cl)ccc31)CCN(C)CC2)c1ccccc1Cl` [Compound No. 244, (Z)-9-chloro-6-(2-(2-chlorophenyl)prop-1-enyl)-3-methyl-1,2,3,4,5,6-hexahydroazepino[4,5-b]indole], for which the inhibition at 1 µM is 100% in test [1]; 103% in test [2]; 43% in test [3]; 102% in test [4]; 99% in test [5]; 101% in test [6].

As for `COc1ccc(/C(C)=C/n2c3c(c4cc(C)ccc42)CCN(C)CC3)cc1F` [Compound No. 179, (E)-6-(2-(3-fluoro-4-methoxyphenyl)prop-1-enyl)-1,2,3,4,5,6-hexahydro-3,9-dimethylazepino[4,5-b]indole], the inhibition at 1 µM in test [1] turned out to be 98%; in test [2], 77%; in test [3] it was 23%; in test [4], 45%; in test [5], 88%; in test [6] it was 100%.

Consider `C/C(=C\n1c2c(c3cc(Cl)ccc31)CCN(C)CC2)c1ccc(Cl)c(Cl)c1` [Compound No. 154, (E)-9-chloro-6-(2-(3,4-dichlorophenyl)prop-1-enyl)-1,2,3,4,5,6-hexahydro-3-methylazepino[4,5-b]indole], for which the inhibition at 1 µM was 100% in test [1]; 92% in test [2]; 33% in test [3]; 94% in test [4]; 97% in test [5]; 99% in test [6].

As to `C/C(=C/n1c2c(c3cc(C)ccc31)CCN(C)CC2)c1ccccc1F` [Compound No. 240, (Z)-6-(2-(2-fluorophenyl)prop-1-enyl)-3,9-dimethyl-1,2,3,4,5,6-hexahydroazepino[4,5-b]indole], the inhibition at 1 µM in test [1] worked out at 98%; in test [2] it was 102%; in test [3], 57%; in test [4], 96%; in test [5] it was 87%; in test [6], 97%.

Regarding `C/C(=C\n1c2c(c3cc(Cl)ccc31)CCN(C)CC2)c1ccncc1` [Compound No. 248, (E)-9-chloro-3-methyl-6-(2-(pyridin-4-yl)prop-1-enyl)-1,2,3,4,5,6-hexahydroazepino[4,5-b]indole], the inhibition at 1 µM in test [1] was 99%; in test [2], 103%; in test [3], 81%; in test [4] it was 88%; in test [5], 44%; in test [6], 101%.

Take `C/C(=C/n1c2c(c3cc(C)ccc31)CCN(C)CC2)c1cccc(F)c1` [Compound No. 251, (Z)-6-(2-(3-fluorophenyl)prop-1-enyl)-3,9-dimethyl-1,2,3,4,5,6-hexahydroazepino[4,5-b]indole]: the inhibition at 1 µM in test [1] was determined as 101%; in test [2], 99%; in test [3], 35%; in test [4] it was 96%; in test [5], 95%; in test [6], 99%.

For the compound `COc1ccc(C#Cn2c3c(c4cc(C)ccc42)CCN(C)CC3)cc1F` [Compound No. 284, 6-((3-fluoro-4-methoxyphenyl)ethynyl)-3,9-dimethyl-1,2,3,4,5,6-hexahydroazepino[4,5-b]indole], the inhibition at 1 µM in test [1] was found to be 94%; in test [2], 42%; in test [3], 11%; in test [4], 11%; in test [5], 4%; in test [6], 100%.

For the origin of these results see patent publication US9481676B2, “Azepino[4,5-B]indoles and methods of use” (Medivation Technologies, Inc., priority 2008, dated 2016).
